Test results: patent US20250059205A1, “Heterocyclic Compounds and Methods of Use” (AMGEN INC., priority 2021, published 2025)

Experiments:
[1] = biological target: His-tagged KRAS G12D protein (Homo sapiens, UniProt P01116, G12D); experiment: KRAS G12D TR-FRET Assay; assay type: binding
[2] = biological target: GDP-bound KRAS protein (aa 1-169), containing both G12D and C118A amino acid substitutions (Homo sapiens, UniProt P01116, C118A/G12D); experiment: KRAS G12D Coupled Nucleotide Exchange Assay; assay type: biochemical; details: 2 h compound pre-incubation
GDP-bound KRAS protein (aa 1-169), containing both G12D and C118A amino acid substitutions, sequence (P01116 1-169 isoform P01116-2 G12D/C118A): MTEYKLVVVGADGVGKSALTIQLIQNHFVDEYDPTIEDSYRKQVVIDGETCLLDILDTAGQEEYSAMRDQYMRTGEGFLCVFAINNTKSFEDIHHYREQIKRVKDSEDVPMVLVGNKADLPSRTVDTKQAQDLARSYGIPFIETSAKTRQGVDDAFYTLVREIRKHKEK
Protocol: Following compound pre-incubation, purified SOS protein (aa 564-1049) and GTP (Roche 10106399001) were added to the assay wells and incubated for an additional 30 min. […] The assay plates were then read on a PerkinElmer EnVision Multilabel Reader, using AlphaScreen® technology, and data were analyzed using a 4-parameter logistic model to calculate IC50 values.

[3] = test system: Phosphorylation of ERK1/2 in A-427 cells; experiment: Phospho-ERK1/2 MSD Assay (A-427 cells); assay type: cell-based; details: Homo sapiens, A-427, 2 h, 2 h treatment, read-out: p-ERK (A427 cells) IC50
Method in brief: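 ERK1/2 phosphorylation measured by Meso Scale whole-cell lysate assay after A-427 cells were exposed to a titration of compound for 2 h at 37 °C.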

[4] = test system: Phosphorylation of ERK1/2 in AsPC-1 cells; experiment: Phospho-ERK1/2 MSD Assay (AsPC-1 cells); assay type: cell-based; details: Homo sapiens, ASPC1, 2 h, 2 hours treatment, read-out: p-ERK (AsPC-1 cells) IC50
Method in brief: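 Read-out: MSD electrochemiluminescent detection of phosphorylated ERK1/2 in whole-cell lysates, fitted to a 4-parameter logistic curve for IC50. Prior to lysis, AsPC-1 cells (25,000 per well) received a 2 h compound dose-response at 37 °C.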

His-tagged KRAS G12D protein, sequence (P01116 1-188 isoform P01116-2 G12D): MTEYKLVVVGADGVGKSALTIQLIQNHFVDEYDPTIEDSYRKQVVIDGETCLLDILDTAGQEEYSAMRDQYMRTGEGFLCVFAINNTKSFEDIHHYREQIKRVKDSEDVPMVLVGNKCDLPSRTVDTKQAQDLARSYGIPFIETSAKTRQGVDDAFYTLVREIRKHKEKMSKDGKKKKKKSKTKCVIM

| SMILES | IC50 [1] [nM] | Avg 2 h Coupled Exchange IC50 [2] [nM] | IC50 [3] [nM] | IC50 [4] [nM] |
| --- | --- | --- | --- | --- |
| Oc1cc(-c2ccc3c(N4C[C@H]5C[C@@H](C4)N5)nc(OCC45CCCN4CC(F)(F)C5)nc3c2F)c2ccccc2c1 (stereo partly drawn) [Example 8, 4-(4-((1R,5S)-3,6-diazabicyclo[3.1. 1]heptan-3-yl)-2-((2,2-difluorotetrahydro-1H-pyrrolizin-7a(5H)-yl)methoxy)-8-fluoroquinazolin-7-yl)naphthalen-2-ol] | 92 | 87 | 7880 | 6940 |
| C#Cc1c(F)ccc2cc(O)cc(-c3ccc4c(N5C[C@H]6CC[C@@H](C5)N6)nc(OC[C@@]56CCCN5C[C@H](F)C6)nc4c3F)c12 [Example 186, 4-(4-((1R,5S)-3,8-diazabicyclo[3.2.1]octan-3-yl)-8-fluoro-2-(((2R,7aS)-2-fluorotetrahydro-1H-pyrrolizin-7a(5H)-yl)methoxy)quinazolin-7-yl)-5-ethynyl-6-fluoronaphthalen-2-ol] | 3 | 3 | 1 | 5 |
| Fc1c(-c2cccc3cccc(Cl)c23)ccc2c(N3[C@@H]4CC[C@H]3CNC4)nc(OC[C@@]34CCCN3C[C@H](F)C4)nc12 [Example 24, 4-((1R,5S)-3,8-diazabicyclo[3.2. 1]octan-8-yl)-7-(8-chloronaphthalen-1-yl)-8-fluoro-2-(((2R,7aS)-2-fluorotetrahydro-1H-pyrrolizin-7a(5H)-yl)methoxy) quinazoline] | 31 | 16 | 3910 | 1390 |
| C#Cc1c(F)ccc2cc(O)cc(-c3ccc4c(N5[C@@H]6CC[C@H]5CNC6)nc(OC[C@@]56CCCN5C[C@H](F)C6)nc4c3F)c12 [Example 187, 4-(4-((1R,5S)-3,8-diazabicyclo[3.2.1]octan-8-yl)-8-fluoro-2-(((2R,7aS)-2-fluorotetrahydro-1H-pyrrolizin-7a(5H)-yl)methoxy)quinazolin-7-yl)-5-ethynyl-6-fluoronaphthalen-2-ol] | 2 | 1 | 5 | 16 |
| CCc1cccc2cccc(-c3c(F)cc4c(N5C[C@H]6CC[C@@H](C5)N6)nc(OC[C@@]56CCCN5C[C@H](F)C6)nc4c3F)c12 [Example 68, 4-((1R,5S)-3,8-diazabicyclo[3.2. 1]octan-3-yl)-7-(8-ethylnaphthalen-1-yl)-6,8-difluoro-2-(((2R,7aS)-2-fluorotetrahydro-1H-pyrrolizin-7a(5H)-yl)methoxy) quinazoline] | 4 | 3 | 732 | 658 |
| CCc1c(F)ccc2cc(O)cc(-c3ccc4c(N5C[C@H]6CC[C@@H](C5)N6)nc(O[C@@H](C)C(C)(C)O)nc4c3F)c12 [Example 136, 4-(4-((1R,5S)-3,8-diazabicyclo[3.2.1]octan-3-yl)-8-fluoro-2-(((S)-3-hydroxy-3-methylbutan-2-yl)oxy)quinazolin-7-yl)-5-ethyl-6-fluoronaphthalen-2-ol] | 56 | 21 | 5350 | 4160 |
| Oc1cc(-c2ccc3c(N4C[C@H]5CC[C@@H](C4)N5)nc(OC[C@@]45CCCN4C[C@H](F)C5)nc3c2F)c2ccccc2c1 [Example 46, 4-(4-((1R,5S)-3,8-diazabicyclo[3.2. 1]octan-3-yl)-8-fluoro-2-(((2R,7aS)-2-fluorotetrahydro-1H-pyrrolizin-7a(5H)-yl)methoxy)quinazolin-7-yl)naphthalen-2-ol] | 2 | 2 | 6 | 39 |
| CCc1cccc2cc(O)cc(-c3c(Cl)cc4c(N5C[C@H]6CC[C@@H](C5)N6)nc(OC[C@@]56CCCN5C[C@H](F)C6)nc4c3F)c12 [Example 170, 4-(4-((1R,5S)-3,8-diazabicyclo[3.2.1]octan-3-yl)-6-chloro-8-fluoro-2-(((2R,7aS)-2-fluorotetrahydro-1H-pyrrolizin-7a(5H)-yl)methoxy)quinazolin-7-yl)-5-ethylnaphthalen-2-ol] | 3 | 3 | 86 | 126 |
| CCc1c(F)ccc2cc(O)cc(-c3c(N)cc4c(N5C[C@H]6CC[C@@H](C5)N6)nc(OC[C@@]56CCCN5C[C@H](F)C6)nc4c3F)c12 [Example 202, 4-(6-Amino-4-((1R,5S)-3,8-diazabicyclo[3.2.1]octan-3-yl)-8-fluoro-2-(((2R,7aS)-2-fluorotetrahydro-1H-pyrrolizin-7a(5H)-yl)methoxy)quinazolin-7-yl)-5-ethyl-6-fluoronaphthalen-2-ol] | 4 | 4 | 9 | 175 |
| Oc1cc(-c2c(F)cc3c(N4C[C@@H]5CC[C@H]4CN5)nc(OC[C@@]45CCCN4C[C@H](F)C5)nc3c2F)c2c(F)c(F)ccc2c1 [Example 157, 4-(4-((1S,4S)-2,5-diazabicyclo[2.2.2]octan-2-yl)-6,8-difluoro-2-(((2R,7aS)-2-fluorotetrahydro-1H-pyrrolizin-7a(5H)-yl)methoxy)quinazolin-7-yl)-5,6-difluoronaphthalen-2-ol] | 4 | 4 | 9 | 46 |
| Oc1cc(-c2c(F)cc3c(N4C[C@H]5CC[C@@H]4CN5)nc(OC[C@@]45CCCN4C[C@H](F)C5)nc3c2F)c2ccccc2c1Cl [Example 206, 4-(4-((1R,4R)-2,5-Diazabicyclo[2.2.2]octan-2-yl)-6,8-difluoro-2-(((2R,7aS)-2-fluorotetrahydro-1H-pyrrolizin-7a(5H)-yl)methoxy)quinazolin-7-yl)-1-chloronaphthalen-2-ol] | 30 | 42 | 116 | 705 |
| Oc1cc(-c2ccc3c(N4C[C@H]5CC[C@@H](C4)N5)nc(OC[C@@]45CCCN4C[C@H](F)C5)nc3c2)c2c(F)c(F)ccc2c1 [Example 77, 4-(4-((1R,5S)-3,8-diazabicyclo[3.2. 1]octan-3-yl)-2-(((2R,7aS)-2-fluorotetrahydro-1H-pyrrolizin-7a(5H)-yl)methoxy)quinazolin-7-yl)-5,6-difluoronaphthalen-2-ol] | 3 | 2 | 38 | 62 |
| CN1C[C@H](F)C[C@H]1COc1nc(N2[C@@H]3CC[C@H]2CNC3)c2cc(F)c(-c3cc(O)cc4cccnc34)c(F)c2n1 [Example 30, 8-(4-((1R,5S)-3,8-diazabicyclo[3.2. 1]octan-8-yl)-6,8-difluoro-2-(((2S,4R)-4-fluoro-1-methylpyrrolidin-2-yl)methoxy)quinazolin-7-yl)quinolin-6-ol] | 559 | 158 | 17700 | 21500 |
| Nc1cc2ccccc2c(-c2ccc3c(N4CC5CCC(C4)N5)nc(OC[C@@]45CCCN4C[C@H](F)C5)nc3c2F)n1 [Example 220] | 60 | 22 | 2860 | 4400 |
| CCc1c(F)ccc2cc(O)cc(-c3cc4nc(OC[C@@]56CCCN5C[C@H](F)C6)nc(N5C[C@H]6CC[C@@H](C5)N6)c4cc3N)c12 [Example 203, 4-(6-Amino-4-((1R,5S)-3,8-diazabicyclo[3.2.1]octan-3-yl)-2-(((2R,7aS)-2-fluorotetrahydro-1H-pyrrolizin-7a(5H)-yl)methoxy)quinazolin-7-yl)-5-ethyl-6-fluoronaphthalen-2-ol] | 6 | 2 | 62 | 171 |
| Cc1c(-c2cc(O)cc3cccc(Cl)c23)ccc2c(N3[C@@H]4CC[C@H]3CNC4)nc(OC[C@@]34CCCN3C[C@H](F)C4)nc12 [Example 98, 4-(4-((1R,5S)-3,8-diazabicyclo[3.2. 1]octan-8-yl)-2-(((2R,7aS)-2-fluorotetrahydro-1H-pyrrolizin-7a(5H)-yl)methoxy)-8-methylquinazolin-7-yl)-5-chloronaphthalen-2-ol] | 13 | 13 | 587 | 1050 |
| CN1C[C@H](F)C[C@H]1COc1nc(N2[C@@H]3CC[C@H]2CNC3)c2cc(F)c(-c3cc(O)cc4ccccc34)c(F)c2n1 [Example 17, 4-(4-((1R,5S)-3,8-diazabicyclo[3.2. 1]octan-8-yl)-6,8-difluoro-2-(((2S,4R)-4-fluoro-1-methylpyrrolidin-2-yl)methoxy)quinazolin-7-yl)naphthalen-2-ol] | 26 | 17 | 1290 | 949 |
| CCc1c(F)ccc2cc(O)cc(-c3c(O)cc4c(N5C[C@H]6CC[C@@H](C5)N6)nc(OC[C@@]56CCCN5C[C@H](F)C6)nc4c3F)c12 [Example 199, 4-((1R,5S)-3,8-Diazabicyclo[3.2.1]octan-3-yl)-7-(8-ethyl-7-fluoro-3-hydroxynaphthalen-1-yl)-8-fluoro-2-(((2R,7aS)-2-fluorotetrahydro-1H-pyrrolizin-7a(5H)-yl)methoxy)quinazolin-6-ol] | 3 | 4 | 9 | 70 |
